This is an account of results in ChEMBL document CHEMBL2021871, “The effects of diketopiperazines from Callyspongia sp. on release of cytokines and chemokines in cultured J774A.1 macrophages” (2012).

Holding throughout (format): functional
The test system of assay [1] is J774.A1. Put plainly: Induction of IL10 secretion in mouse J774A1 cells at 5 ug/mL after 48 hrs by ELISA relative to control. (In an ELISA, binding on a coated surface is turned into a signal by an enzyme label.)
For assay [2], the system named is J774.A1. Description: Induction of IFN-gamma secretion in mouse J774A1 cells at 5 ug/mL after 48 hrs by ELISA relative to control.
The test system of assay [3] is J774.A1. Description: Induction of MCP-1 secretion in mouse J774A1 cells at 5 ug/mL after 48 hrs by ELISA relative to control.
Assay [4] concerns J774.A1. Put plainly: Induction of TNF-alpha secretion in mouse J774A1 cells at 5 ug/mL after 48 hrs by ELISA relative to control.
The test system of assay [5] is J774.A1. Description: Reduction of TNF-alpha secretion in mouse J774A1 cells at 5 ug/mL after 48 hrs by ELISA relative to control. Also noted: scale not given: the % may be the effect or the level left.

The source made the active and inactive calls. The rule behind the calls is not given here.

For the compound `O=C1NCC(=O)N2CCC[C@@H]12` [CYCLO(PROLYLGLYCYL)], the “fold change (FC)” value in assay [1] worked out at 1.29; in assay [2], 3.5; in assay [3], 1.86. In assay [4], the result was inactive.

`O=C1N[C@@H](Cc2ccccc2)C(=O)N2CCC[C@@H]12`: the figures for the “fold change (FC)” value in assay [1], in assay [2] and in assay [3] were 1.54, 1.62 and 2.05, respectively. For the same compound, in assay [4], the outcome was inactive.

Turning to `C[C@@H]1NC(=O)[C@@H]2CCCN2C1=O`, the results for the “fold change (FC)” value in assay [1], in assay [2] and in assay [3] were 1.56, 1.36 and 1.47, respectively.

Consider `C[C@@H]1NC(=O)[C@@H]2C[C@@H](O)CN2C1=O`, for which the “fold change (FC)” value is 1.65 in assay [1], 4.49 in assay [2], 3.09 in assay [3] and 1.12 in assay [4].

For the compound `CC(C)C[C@@H]1NC(=O)[C@H](Cc2ccc(O)cc2)NC1=O`, the outcome in assay [1] and in assay [4] was inactive. The “fold change (FC)” value is listed as 1.82 in assay [2] and 2.24 in assay [3]. For the same compound, the Activity in assay [5] turned out to be 88.3%.
